According to US11001578B2, “N-((HET)arylmethyl)-heteroaryl-carboxamides compounds as plasma kallikrein inhibitors” (KALVISTA PHARMACEUTICALS LIMITED, priority 2014, dated 2021):

What was measured:
[1] = molecular target: Human KLK1 (Homo sapiens (Human), UniProt P06870); assay: Determination of the IC50 for KLK1 (fluorogenic substrate H-DVal-Leu-Arg-AFC); assay type: biochemical; settings: 25° C.
Experimental: Determination of the IC50 for KLK1
Human KLK1 (Callbiochem) was incubated at 25° C. with the fluorogenic substrate H-DVal-Leu-Arg-AFC and various concentrations of the test compound. Residual enzyme activity (initial rate of reaction) was determined by measuring the change in […] at 410 nm and the IC50 value for the test compound was determined.

[2] = molecular target: Human FXIa (Homo sapiens (Human), UniProt P03951); assay: Determination of the % inhibition for FXIa (fluorogenic substrate Z-Gly-Pro-Arg-AFC); assay type: biochemical; settings: 40 μM of the test compound, 25° C.
Experimental: Determination of the % Inhibition for FXIa
Human FXIa (Enzyme Research Laboratories) was incubated at 25° C. with the fluorogenic substrate Z-Gly-Pro-Arg-AFC and 40 μM of the test compound. Residual enzyme activity (initial rate of reaction) was determined by measuring the change in […].

Chain of Human FXIa (P03951 388-625 limits assumed): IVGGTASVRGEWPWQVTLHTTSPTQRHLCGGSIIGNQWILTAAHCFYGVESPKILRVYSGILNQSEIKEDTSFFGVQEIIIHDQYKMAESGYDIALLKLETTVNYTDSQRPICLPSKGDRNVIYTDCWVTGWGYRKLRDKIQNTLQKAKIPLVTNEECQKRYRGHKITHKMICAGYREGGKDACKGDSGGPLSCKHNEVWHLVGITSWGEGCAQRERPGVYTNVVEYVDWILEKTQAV
Chain of Human FXIa (P03951 19-387 partner limits assumed): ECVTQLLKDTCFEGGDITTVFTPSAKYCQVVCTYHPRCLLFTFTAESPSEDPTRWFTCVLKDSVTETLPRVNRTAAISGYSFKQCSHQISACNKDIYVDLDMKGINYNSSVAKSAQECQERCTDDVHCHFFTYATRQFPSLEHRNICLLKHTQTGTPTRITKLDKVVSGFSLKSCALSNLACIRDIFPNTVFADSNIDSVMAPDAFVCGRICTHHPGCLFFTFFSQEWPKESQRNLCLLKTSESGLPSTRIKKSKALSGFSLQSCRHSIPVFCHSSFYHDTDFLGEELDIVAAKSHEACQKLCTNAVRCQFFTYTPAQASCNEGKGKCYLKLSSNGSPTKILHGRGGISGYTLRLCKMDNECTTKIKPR
Chain of Human KLK1 (P06870 25-262): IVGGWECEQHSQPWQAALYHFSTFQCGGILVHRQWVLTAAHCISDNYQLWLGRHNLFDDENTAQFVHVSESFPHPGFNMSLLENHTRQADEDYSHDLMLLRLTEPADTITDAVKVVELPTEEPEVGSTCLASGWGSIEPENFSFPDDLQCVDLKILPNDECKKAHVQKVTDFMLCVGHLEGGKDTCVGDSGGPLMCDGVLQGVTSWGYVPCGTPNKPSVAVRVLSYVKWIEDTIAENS

IC50 [1] [µM] | % Inhibition @ 40 μM (human FXIa) [2] [%] | SMILES
> 10 | – | COc1cc(F)c(CNC(=O)c2cn(Cc3ccc(Cn4cc(C)cn4)cc3)nc2C(F)(F)F)c(F)c1 [Example 11, N-[(2,6-difluoro-4-methoxyphenyl)methyl]-1-({4-[(4-methylpyrazol-1-yl)methyl]phenyl}methyl)-3-(trifluoromethyl)pyrazole-4-carboxamide]
– | 0 | NC(=O)c1cccc(CNC(=O)c2cn(Cc3ccc(Cn4ccccc4=O)cc3)nc2C2CC2)c1 [Example 49, N-[(3-carbamoylphenyl)methyl]-3-cyclopropyl-1-({4-[(2-oxopyridin-1-yl)methyl]phenyl}methyl)pyrazole-4-carboxamide]
– | 0 | Nc1nn(Cc2ccc(Cn3ccccc3=O)cc2)cc1C(=O)NCc1ccc(OC(F)(F)F)cc1 [Example 58, 3-amino-1-({4-[(2-oxopyridin-1-yl)methyl]phenyl}methyl)-N-{[4-(trifluoromethoxy)phenyl]methyl}pyrazole-4-carboxamide]

SMILES | IC50 [1] [µM] | % Inhibition @ 40 μM (human FXIa) [2] [%]
COc1cccc(CNC(=O)c2cn(Cc3ccc(Cn4ccccc4=O)cc3)nc2C2CC2)c1F [Example 52, 3-cyclopropyl-N-[(2-fluoro-3-methoxyphenyl)methyl]-1-({4-[(2-oxopyridin-1-yl)methyl]phenyl}methyl)pyrazole-4-carboxamide] | – | 1
